“Also recorded” adds a separate entry of the source. Counter-ions that a name gives are not always drawn.
Experiments:
Type in all cases: physicochemical
[1] = Solid-state chemical stability of 25HC3S salts at 2-8° C., 60° C. and 80° C. (HPLC assay and degradation products); conditions: for % Impurities, Total / % Impurities, 25-HC: ND = Not Detected; for % Impurities, 25-HC: 25-Hydroxy-Cholesterol; for % Recovery: vs 2-8° C.
Method: Approximately 25 mg of each crystalline 25HC3S salt was added to 20 mL glass vials and each powder weight was recorded. Four vials were prepared for each salt and stored at 2-8° C. or 80° C. according to Table B2. The samples were scheduled initially to pull for testing at 3 weeks and 6 weeks' time points.
For those […] salts, the remaining vials stored at 2-8° C. for 3 weeks were allocated for storage at 60° C. for 1 week. Additional stability data was generated according to Table B3.
Based on the molecular weights, and expected UV response factors of each salt used in this study, the expected analytical sample concentrations were within the range of the 25HC3S sodium reference standards (0.75 mg/mL to 1.25 mg/mL as 25HC3S sodium salt). However, due to the lower-than-expected purity of the 25HC3S benzathine salt, an additional standard was prepared at 0.125 mg/mL as 25HC3S sodium salt.
Samples were prepared by pipetting 20 mL of 100% methanol into each vial and mixing well, with sonication and vortexing to fully dissolve the samples for HPLC analysis.
Samples were prepared by pipetting 20 mL of 100% methanol into each vial followed by two rounds of sonication for 30 minutes, with 30 seconds of vortexing before and after each round. Sample aliquots were then centrifuged at 10,000 RPM for 10 minutes and the supernatant collected for HPLC analysis.
Samples were prepared by pipetting 20 mL of 100% methanol into each vial, followed by 5 seconds of vortexing. The undissolved powder in methanol was quantitatively transferred into 200 mL volumetric flasks. The sample vials were rinsed 3 times with methanol, with each rinsate transferred to the 200 mL volumetric flasks. The volumetric flasks were filled to about 90% volume and sonicated for 10 minutes to fully dissolve the powder. The flasks were filled to volume with methanol, mixed well and aliquots collected for HPLC analysis.
HPLC analysis was performed.

[2] = Angle of repose of 25HC3S salts; conditions: for Flow Property per USP<1174> Powder Flow: classification by angle of repose
Method: Angle of repose is measured as follows. Powder is poured from a funnel onto a flat surface until a cone of powder is created. The angle of repose is calculated according to the following equation: […]
Table C1, from USP<1174> Powder Flow, describes the powder flow properties correlating to the angles of repose.
The lower the angle of repose, the more flowable is a material. Powder with an angle of repose between 25° to 30° will show excellent flow through a hopper, feed frame, die table and die bore smoothly. From 41° to greater than 66°, you may experience powder flow difficulties like rat-holing or bridging within the hopper.
The angle of repose was determined by pouring approximately 2 grams of a 25HC3S salt through a 7 mm inner diameter plastic tube into the center of a 21.14 mm diameter rubber O-ring, resulting in the formation of a powder cone of fixed diameter. The height of the cone was estimated with calipers.

[3] = Overall rank order of powder flowability (angle of repose and Hausner ratio); conditions: for Powder flowability, overall (in words): angle of repose and compressibility index/Hausner ratio combined; for Angle of Repose Rank Order / Hausner Ratio Rank Order / Overall Rank Order (Total Score): lower is better flow; for Overall Rank Order (Total Score): sum of both ranks
Source text: Table C5 was generated by adding the relative rank order of the 25HC3S salts for angle of repose and Hausner ratio results, and creating an Over All Rank Order of the salts powder flowability. The salts with the lower overall rank order score had better powder flowability.

[4] = Thermogravimetric analysis (TGA), weight loss
Method: Differential scanning calorimetry (DSC) is a thermoanalytical technique where the difference in the amount of heat required to increase the temperature of a sample and reference is measured as a function of temperature. Using this technique, phase transitions of a sample can be measured such as melting point. Decomposition can also be observed by DSC as can dehydration events. In the context of DSC measurements, there is also variability and the term “about” means ±1° C., and such variability is to be understood whether a DSC measurement is prefaced by “about” or not unless specified otherwise. Exemplary methods for collecting DSC data are set forth in Example 21. Thermogravimetric analysis, sometimes referred to as, thermal gravimetric analysis (TGA) is a thermal method of thermal analysis where the mass of a sample is measured as a function of time as the sample temperature changes. For example, when samples disclosed herein are heated and a loss in mass is measured prior to decomposition, this is likely indicative of the loss of water from the sample and may indicate that the sample being heated is a hydrate. Exemplary methods for collecting TGA are set forth in Example 23.
TG analysis was performed using a Mettler-Toledo TGA/DSC3 analyzer. Temperature and enthalpy adjustments were performed using indium, tin, and zinc, and then verified with indium. The balance was verified with calcium oxalate. The sample was placed in an open aluminum pan. The pan was hermetically sealed, the lid pierced, then inserted into the TG furnace. A weighed aluminum pan configured as the sample pan was placed on the reference platform. The furnace was heated under nitrogen. Each sample was heated from ambient temperature to 350° C. at 10° C./min. Although thermograms are plotted by reference temperature (x-axis), results are reported according to sample temperatures.

[5] = 2-8° C., 3 wk, listed as 25HC3S magnesium
[6] = 60° C., 1 week, listed as 25HC3S Magnesium
[7] = 80° C., 3 weeks, listed as 25HC3S Magnesium
[8] = 80° C., 5 wk, 50400 min, listed as 25HC3S benzathine
[9] = 2-8° C., 3 wk, listed as 25HC3S diethanolamine
[10] = 2-8° C., 5 wk, listed as 25HC3S diethanolamine
[11] = 80° C., 3 wk, listed as 25HC3S diethanolamine
[12] = 80° C., 5 wk, listed as 25HC3S diethanolamine
[13] = 80° C., 5 wk, 50400 min, listed as 25HC3S diethanolamine
[14] = listed as 25HC3S diethanolamine

CC(CCCC(C)(C)O)C1CCC2C3CC=C4CC(OS(=O)(=O)O)CCC4(C)C3CCC12C (stereo not shown) [Salt #13]
Assay ([1]; 2-8° C., 3 wk, 30240 min, listed as 25HC3S magnesium): 90.8 % w/w | % Impurities, Total [1, 5]: 1.6% | Overall physical and chemical stability (in words) ([1]; 2-8° C., 60° C., 80° C.): least physically and chemically stable | Overall physical and chemical stability (in words) ([1]; 2-8° C., 60° C., 80° C., listed as magnesium): least stable | % Impurities, 25-HC [1, 5]: 0.3% | Physical and chemical solid-state stability (comments) [1, 6]: Totally decomposed after 1 week at 60 °C | dissolution of decomposed samples in diluent / degradants observed (comments) [1, 6]: decomposed samples at 60 °C after 1 week did not dissolve in the diluent,; also recorded: therefore, no degradants were observed. However, the decomposed | Assay ([1]; 60° C., 1 wk (after 3 weeks at 2-8° C.), 10080 min, listed as 25HC3S magnesium, 10080 min): 0.0 % w/w | % Recovery of 2-8° C./3 wk vs 60° C./1 wk ([1]; 60° C., 1 wk, 10080 min, listed as 25HC3S magnesium): 0.0% | Physical and chemical solid-state stability (comments) [1, 7]: Totally decomposed after 1 week at 60 °C and after 3 weeks at 80 °C | dissolution of decomposed samples in diluent / degradants observed (comments) [1, 7]: samples at 80 °C after 3 weeks may have dissolved slightly in the diluent,; also recorded: therefore, degradation products were observed | % Recovery ([1]; 80° C., 3 wk, 30240 min, listed as 25HC3S magnesium, 30240 min): 0.0% | Assay ([1]; 80° C., 3 wk, 30240 min, listed as 25HC3S magnesium): 0.0 % w/w | % Impurities, Total ([1]; 80° C., 3 wk, listed as 25HC3S magnesium): 100% | Stability after 1 week at 60° C. (in words) ([1]; solid state, 60° C., 1 week (after 3 weeks at 2-8° C.)): totally decomposed | Stability after 3 weeks at 80° C. (in words) ([1]; solid state, 80° C., 3 weeks): totally decomposed | Flow Property per USP<1174> Powder Flow ([2]; listed as 25HC3S magnesium): Fair - aid not needed | Angle of Repose ([2]; listed as 25HC3S magnesium): 37.7 degrees | Angle of Repose, Rounded Whole Number ([2]; listed as 25HC3S magnesium): 38 degrees | Powder flowability, overall (in words) ([3]; listed as magnesium): poorer flowability | Angle of Repose Rank Order ([3]; listed as 25HC3S magnesium): 7 | Hausner Ratio Rank Order ([3]; listed as 25HC3S magnesium): 14 | Overall Rank Order (Total Score) ([3]; listed as 25HC3S magnesium): 21 | Weight loss by TGA up to 127° C. ([4]; up to 127° C.): about 1.5%

CC(CCCC(C)(C)O)C1CCC2C3CC=C4CC(OS(=O)(=O)O)CCC4(C)C3CCC12C (stereo not shown) [Salt #9]
Assay ([1]; 2-8° C., 3 wk, 30240 min, listed as 25HC3S benzathine): 87.6 % w/w | % Impurities, Total ([1]; 2-8° C., 3 wk, listed as 25HC3S benzathine): 64.0% | Assay ([1]; 2-8° C., 5 wk, 50400 min, listed as 25HC3S benzathine): 77.1 % w/w | % Impurities, Total ([1]; 2-8° C., 5 wk, listed as 25HC3S benzathine): 64.2% | degradation by area normalization ([1]; 3 and 5 weeks, 2-8° C. and 80° C.): normalization were all approximately 64%-65% indicating that thermal | Change of assay value (in words) ([1]; 3 weeks and 5 weeks, 2-8° C. and 80° C.): dropped at a similar rate | assay drop (comments) ([1]; 3 weeks at 2-8° C. and 80° C. as well as after 5 weeks): The assay dropped at a similar rate after 3 weeks at 2-8 °C and 80 °C | % Recovery ([1]; 80° C., 3 wk, 30240 min, listed as 25HC3S benzathine, 30240 min): 97.4% | Assay ([1]; 80° C., 3 wk, 30240 min, listed as 25HC3S benzathine): 85.3 % w/w | % Impurities, Total ([1]; 80° C., 3 wk, listed as 25HC3S benzathine): 64.3% | % Recovery, 2-8° C./5 wk vs 80° C./5 wk [1, 8]: 91.8% | Assay [1, 8]: 70.8 % w/w | % Impurities, Total ([1]; 80° C., 5 wk, listed as 25HC3S benzathine): 65.3% | degraded ([1]; solid state, 3 weeks and 5 weeks, 2-8° C. and 80° C., read-out: Degradation by area normalization): 64 to 65% | Flow Property per USP<1174> Powder Flow ([2]; listed as 25HC3S benzathine): Passable - may hang up | Angle of Repose ([2]; listed as 25HC3S benzathine): 43.7 degrees | Angle of Repose, Rounded Whole Number ([2]; listed as 25HC3S benzathine): 44 degrees | Powder flowability, overall (in words) ([3]; listed as benzathine): next group | Angle of Repose Rank Order ([3]; listed as 25HC3S benzathine): 12 | Hausner Ratio Rank Order ([3]; listed as 25HC3S benzathine): 7 | Overall Rank Order (Total Score) ([3]; listed as 25HC3S benzathine): 19 | Weight loss by TGA up to 200° C. ([4]; up to 200° C., listed as crystalline 25HC3S benzathine): 0.4%

CC(CCCC(C)(C)O)C1CCC2C3CC=C4CC(OS(=O)(=O)O)CCC4(C)C3CCC12C (stereo not shown) [Salt #10]
Assay ([1]; 2-8° C., 3 wk, 30240 min, listed as 25HC3S diethanolamine): 100.2 % w/w | % Impurities, Total [1, 9]: 1.8% | Assay ([1]; 2-8° C., 5 wk, 50400 min, listed as 25HC3S diethanolamine): 107.0 % w/w | % Impurities, Total [1, 10]: 1.9% | Overall physical and chemical stability (in words) ([1]; 2-8° C., 60° C., 80° C.): physically and chemically stable | Overall physical and chemical stability (in words) ([1]; 2-8° C., 60° C., 80° C., listed as diethanolamine): relatively stable | % Impurities, 25-HC [1, 9]: 0.4% | % Impurities, 25-HC [1, 10]: 0.4% | % Impurities, 25-HC [1, 11]: 0.9% | % Impurities, 25-HC [1, 12]: 1.2% | Stressed stability at 80° C. (in words) ([1]; 80° C.): good, stressed stability | % Recovery ([1]; 80° C., 3 wk, 30240 min, listed as 25HC3S diethanolamine, 30240 min): 99.4% | Assay ([1]; 80° C., 3 wk, 30240 min, listed as 25HC3S diethanolamine): 99.6 % w/w | % Impurities, Total [1, 11]: 2.8% | Physical and chemical solid-state stability (comments) ([1]; 80° C., 5 weeks): Stable after 5 weeks at 80 °C physically and chemically. | % Recovery, 2-8° C./5 wk vs 80° C./5 wk [1, 13]: 97.7% | Assay [1, 13]: 104.5 % w/w | % Impurities, Total [1, 12]: 3.5% | Stability after 5 weeks at 80° C. (in words) ([1]; solid state, 80° C., 5 weeks): stable | Flow Property per USP<1174> Powder Flow [2, 14]: Passable - may hang up | Angle of Repose [2, 14]: 49.2 degrees | Angle of Repose, Rounded Whole Number [2, 14]: 49 degrees | Powder flowability, overall (in words) ([3]; listed as diethanolamine): poorer flowability | Angle of Repose Rank Order [3, 14]: 14 | Hausner Ratio Rank Order [3, 14]: 9 | Overall Rank Order (Total Score) [3, 14]: 23 | Weight loss by TGA up to 175° C. (in words) ([4]; up to 175° C.): Negligible weight loss

— US20260317367A1, “SALTS INCLUDING CRYSTALLINE SALTS OF 25-HYDROXY-CHOLEST-5-EN-3-SULFATE AND METHODS FOR PREPARING SAME” (Durect Corporation, priority 2022, published 2026)
